Experiment: xn = mol fraction of the nth substance listed
Settings: 101 kPa, Liquid; for speed of sound: Pulse-echo method

CCCNCCC [dipropylamine] + COC(C)(C)C
Settings	mass density, 288.15 K [kg/m3]	mass density, 293.15 K [kg/m3]	mass density, 298.15 K [kg/m3]	mass density, 303.15 K [kg/m3]	mass density, 308.15 K [kg/m3]	speed of sound, 288.15 K [m/s]	speed of sound, 293.15 K [m/s]	speed of sound, 298.15 K [m/s]	speed of sound, 303.15 K [m/s]	speed of sound, 308.15 K [m/s]
x2 = 0	745.064	740.501	735.924	731.333	726.732	1235.1	1213.4	1191.9	1170.4	1149
x2 = 0.0455	744.529	739.961	735.381	730.779	726.199	1226.5	1204.6	1182.9	1161.5	1140.1
x2 = 0.0993	743.741	739.141	734.529	729.903	725.268	1218.5	1196.6	1174.9	1153.4	1132
x2 = 0.1886	743.725	739.088	734.436	729.765	725.081	1206.8	1184.9	1163	1141.4	1120
x2 = 0.304	744.015	739.319	734.607	729.854	725.082	1191.2	1169.1	1147.2	1125.5	1103.9
x2 = 0.3981	744.373	739.628	734.96	730.165	725.325	1179	1156.8	1134.8	1112.9	1091.2
x2 = 0.4954	744.92	740.107	735.272	730.41	725.531	1164.9	1142.8	1120.8	1099.1	1076.8
x2 = 0.5839	745.36	740.49	735.593	730.664	725.713	1152.3	1130	1107.8	1085.9	1063.8
x2 = 0.7057	745.893	740.912	735.904	730.891	725.831	1131.9	1109.4	1087	1064.9	1042.5
x2 = 0.7685	746.206	741.193	736.153	731.058	725.925	1121.7	1099.1	1076.6	1054.4	1032
x2 = 0.8876	746.684	741.588	736.455	731.289	726.066	1103.9	1080.8	1057.9	1035.3	1012.9
x2 = 0.9337	746.947	741.806	736.641	731.421	726.159	1097	1073.6	1050.7	1028	1005.4

Reference: the NIST ThermoML archive (doi:10.1021/je900597n)
